For eleven compounds, TGI results are on record in PubChem BioAssay (NCI).

Common to all, as to test: NCI anticancer screen, dose series, 48 h
The subject of assay [1] is OVCAR-5 ovarian.
Assay [2] has as its system ACHN renal.
Assay [3] deals with OVCAR-4 ovarian.
Assay [4] has as its system HCT-116 colon.
Assay [5] relates to U251 CNS.
Assay [6] has as its system RXF 393 renal.
In assay [7] the test system is HCC-2998 colon.
The test system of assay [8] is SF-539 CNS.
In assay [9] the test system is UACC-62 melanoma.
Assay [10] has as its system SF-295 CNS.

Each structure is given as a SMILES string.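 Protocol summary: plate cells (96-well), add compound at 5 concentrations, incubate 48 h, interpolate endpoints linearly. At the TGI there is no net growth.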 Where only a bound is given, the exact number is not on record here.

As for `O=[N+]([O-])C(=C(\Cl)NCCO)/C(Cl)=C(/Cl)Br`, the TGI in assay [1] amounted to 13.4 µM; in assay [2], 8.9 µM; in assay [3] it was 3.01 µM; in [4] it was 5.18 µM; in [5] it was 6.27 µM; in [6], 5.95 µM. Moreover, the TGI in assay [7] turned out to be 11.1 µM; in [8] it was 6.15 µM; in assay [9], 4.78 µM; in [10] it was 24.9 µM.

Regarding `O=c1oc2ccc([N+](=O)[O-])cc2cc1-c1csc(-c2ccccc2)n1`, the TGI in [1], in [2], in assay [3], in [4], in assay [5] and in assay [6] was more than 100 µM throughout. For the same compound, the TGI in assay [7], in assay [8], in [9] and in assay [10] was more than 100 µM throughout.

On to `CC1=NN(c2cccc(S(=O)(=O)O)c2)C2(C1)SCC(=O)N2c1nc2ccccc2s1` (stereo not given), for which the TGI in assay [1], in [2], in assay [3], in assay [4], in assay [5] and in [6] was more than 100 µM in each case. Moreover, the TGI in assay [7], in assay [8], in assay [9] and in [10] was more than 100 µM in each case.

With `CCCCCC(=O)OC[n+]1ccc(-c2c(COC(=O)NC(C)C)c(COC(=O)NC(C)C)c3n2CCC3)cc1`, the TGI in [1], in assay [2], in assay [3], in assay [4], in assay [5] and in assay [6] was more than 100 µM each time. In addition, the TGI in assay [7], in assay [8], in assay [9] and in [10] was more than 100 µM in each case.

With `COC(=O)CCC(=O)c1ccc2c(c1)CC1(Cc3ccccc3C1)C2`, the TGI in assay [1], in assay [2], in assay [3], in [4], in assay [5] and in [6] was more than 100 µM in each case. In addition, the TGI in assay [7], in assay [8], in assay [9] and in assay [10] was more than 100 µM throughout.

With `CCCCCCCCC[C@@H]1C[C@H](O)[C@H](Cc2ccccc2)N1C(=O)OC(C)(C)C`, the TGI in [1] was 28.5 µM; in assay [2] it was 30.8 µM; in [3], 33 µM; in assay [4], 31.9 µM; in assay [5], 30.2 µM; in assay [6], 32.2 µM. In addition, the TGI in assay [7] was determined as 27.8 µM; in [8] it was 37.2 µM; in [9], 33.3 µM; in assay [10] it was 30.1 µM.

For `c1ccc2c[n+](Cc3ccnc4ccccc34)ccc2c1`, the TGI in assay [1], in assay [2], in assay [3], in assay [4], in [5] and in assay [6] was more than 100 µM each time. The TGI in assay [7], in assay [8], in assay [9] and in assay [10] was more than 100 µM throughout.

Turning to `O=C1N(c2ccccc2)N=C2c3ccncc3C3=NN(c4ccccc4)C(=O)C123` (stereo not given), the TGI in [1], in [2], in assay [3], in assay [4], in [5] and in assay [6] was more than 100 µM in each case. Also, the TGI in assay [7] is more than 88 µM; in [8] it was more than 46.8 µM; in [9], more than 57.1 µM; in assay [10] it was more than 100 µM.

Turning to `C=CCOC1=C(OC(C)=O)C(C2COC(C)(C)O2)OC1=O` (stereo not given), the TGI in [1] was 32.4 µM; in assay [2], 32.5 µM; in [3], 45.9 µM; in assay [4], 36 µM; in [5], 72.5 µM; in assay [6] it was 46.3 µM. Moreover, the TGI in assay [7] was more than 100 µM; in assay [8], more than 100 µM; in [9], 68.2 µM; in [10] it was more than 100 µM.

Take `COc1ccc(/C=C2/C(=O)C(c3ccccc3)N(c3ccccc3)C2=O)cc1OC` (stereo not given): the TGI in assay [1], in assay [2], in assay [3], in assay [4], in assay [5] and in assay [6] was more than 10 µM throughout. Further, the TGI in assay [7], in assay [8], in assay [9] and in assay [10] was more than 10 µM in each case.

For the compound `CCN(CC)C(=O)CCNC(C)Cc1c[nH]c2ccccc12` (stereo not given), the TGI in assay [1], in [2], in assay [3], in assay [4], in assay [5] and in [6] was more than 100 µM each time. The TGI in assay [7], in assay [8], in [9] and in [10] was more than 100 µM in each case.
